Where two headings read alike, the source gives them in different places.
How the values were obtained:
CDK9/CycT1 = biological target: T1, CDK9/CycT1 (Homo sapiens, UniProt P50750); experiment: CDK9/CycT1 kinase assay (TR-FRET, 10 μM ATP); type: biochemical; settings: Method 1a
T1 construct: Recombinant full-length His-tagged human CDK9 and CycT1; His; purchased Invitrogen PV4131; host or cells: insect cells
From the text: 1a. CDK9/CyeT1 Kinase Assay:
CDK9/CycT1-inhibitory activity of compounds of the present invention was quantified employing the CDK9/CycT1 TR-FRET assay as described in the following paragraphs:
Recombinant full-length His-tagged human CDK9 and CycT1, expressed in insect cells and purified by Ni-NTA affinity chromatography, were purchased from Invitrogen (Cat. No PV4131). As substrate for the kinase reaction biotinylated peptide biotin-Ttds-[…] (C-terminus in amid form) was used which can be purchased e.g. form the company JERINI Peptide Technologies (Berlin, Germany). For the assay 50 nl of a 100 fold concentrated solution of the test compound in DMSO was pipetted into a black low volume 384 well microtiter plate (Greiner Bio-One, Frickenhausen, Germany), 2 μl of a solution of CDK9/CycT1 in aqueous assay buffer [50 mM Tris/HCl pH 8.0, 10 mM MgCl2, 1.0 mM dithiothreitol, 0.1 mM sodium ortho-vanadate, 0.01% (v/v) Nonidet-P40 (Sigma)] were added and the mixture was incubated for 15 min at 22° C. to allow pre-binding of the test compounds to the enzyme before the start of the kinase reaction.
The resulting mixture was incubated 1 h at 22° C. to allow the formation of complex between the phosphorylated biotinylated peptide and the detection reagents. Subsequently the amount of phosphorylated substrate was evaluated by measurement of the resonance energy transfer from the Eu-chelate to the streptavidine-XL.

[1] = test system: MOLM-13 human acute myeloid leukemia cells; experiment: Proliferation assay, MOLM-13 (Cell Titre-Glo); type: cell-based; settings: MOLM-13, 72-hour exposure, read-out: Inhibition of MOLM-13 cell proliferation IC50
Procedure: (§1) Cultivated tumour cells (HeLa, human cervical tumour cells, ATCC CCL-2; NCI-H460, human non-small cell lung carcinoma cells, ATCC HTB-177; A2780, human ovarian carcinoma cells, ECACC #93112519; DU 145, hormone-independent human prostate carcinoma cells, ATCC HTB-81; HeLa-MaTu-ADR, multidrug-resistant human cervical carcinoma cells, EPO-GmbH Berlin; Caco-2, human colorectal carcinoma cells, ATCC HTB-37; B16F10, mouse melanoma cells, ATCC CRL-6475) were plated at a density of 5,000 cells/well (DU145, HeLa-MaTu-ADR), 3,000 cells/well (NCI-H460, HeLa), 2,500 cells/well (A2780), 1,500 cells/well (Caco-2), or 1,000 cells/well (B16F10) in a 96-well multititer plate in 200 μL of their respective growth medium supplemented 10% fetal calf serum. After 24 hours, the cells of one plate (zero-point plate) were stained with crystal violet (see below), while the medium of the other plates was replaced by fresh culture medium (200 μl), to which the test substances were added in various concentrations (0 μM, as well as in the range of 0.001-10 μM; the final concentration of the solvent dimethyl sulfoxide was 0.5%). The cells were incubated for 4 days in the presence of test substances. Cell proliferation was determined by staining the cells with crystal violet: the cells were fixed by adding 20 μl/measuring point of an 11% glutaric aldehyde solution for 15 minutes at room temperature. After three washing cycles of the fixed cells with water, the plates were dried at room temperature. The cells were stained by adding 100 μl/measuring point of a 0.1% crystal violet solution (pH 3.0). After three washing cycles of the stained cells with water, the plates were dried at room temperature. The dye was dissolved by adding 100 μl/measuring point of a 10% acetic acid solution. The extinction was determined by photometry at a wavelength of 595 nm. The change of cell number, in percent, was calculated by normalization of the measured values to the extinction values of the zero-point plate (=0%) and the extinction of the untreated (0 μm) cells (=100%). The IC50 values (inhibitory concentration at 50% of maximal effect) were determined by means of a 4 parameter fit. Non-adherent MOLM-13 human acute myeloid leukemia cells (DSMZ ACC 554) were seeded at a density of 5,000 cells/well in a 96-well multititer plate in 100 μL of growth medium supplemented 10% fetal calf serum. After 24 hours, cell viability of one plate (zero-point plate) was determined with the Cell Titre-Glo Luminescent Cell Viability Assay (Promega), while 50 μL of test compound containing medium was added to the wells of the other plates (final concentrations in the range of 0.001-10 μM and DMSO controls; the final concentration of the solvent dimethyl sulfoxide was 0.5%). Cell viability was assessed after 72-hour exposure with the Cell Titre-Glo Luminescent Cell Viability Assay (Promega).

[2] = test system: A2780, human ovarian carcinoma cells; experiment: Proliferation assay, A2780 (crystal violet); type: cell-based; settings: A2780, 4 days, read-out: Inhibition of A2780 cell proliferation IC50
Procedure: as §1

T1 sequence (P50750 whole entry): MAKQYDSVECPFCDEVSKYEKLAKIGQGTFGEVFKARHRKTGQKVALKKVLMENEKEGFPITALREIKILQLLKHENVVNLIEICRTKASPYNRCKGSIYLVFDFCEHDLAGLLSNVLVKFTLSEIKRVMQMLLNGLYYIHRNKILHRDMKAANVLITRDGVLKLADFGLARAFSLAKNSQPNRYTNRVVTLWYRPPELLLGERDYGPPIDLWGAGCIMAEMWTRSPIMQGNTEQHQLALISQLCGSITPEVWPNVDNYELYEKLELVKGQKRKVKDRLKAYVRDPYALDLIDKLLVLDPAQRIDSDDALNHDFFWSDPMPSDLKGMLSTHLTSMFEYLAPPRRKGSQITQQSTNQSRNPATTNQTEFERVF
T1 sequence (O60563 whole entry partner): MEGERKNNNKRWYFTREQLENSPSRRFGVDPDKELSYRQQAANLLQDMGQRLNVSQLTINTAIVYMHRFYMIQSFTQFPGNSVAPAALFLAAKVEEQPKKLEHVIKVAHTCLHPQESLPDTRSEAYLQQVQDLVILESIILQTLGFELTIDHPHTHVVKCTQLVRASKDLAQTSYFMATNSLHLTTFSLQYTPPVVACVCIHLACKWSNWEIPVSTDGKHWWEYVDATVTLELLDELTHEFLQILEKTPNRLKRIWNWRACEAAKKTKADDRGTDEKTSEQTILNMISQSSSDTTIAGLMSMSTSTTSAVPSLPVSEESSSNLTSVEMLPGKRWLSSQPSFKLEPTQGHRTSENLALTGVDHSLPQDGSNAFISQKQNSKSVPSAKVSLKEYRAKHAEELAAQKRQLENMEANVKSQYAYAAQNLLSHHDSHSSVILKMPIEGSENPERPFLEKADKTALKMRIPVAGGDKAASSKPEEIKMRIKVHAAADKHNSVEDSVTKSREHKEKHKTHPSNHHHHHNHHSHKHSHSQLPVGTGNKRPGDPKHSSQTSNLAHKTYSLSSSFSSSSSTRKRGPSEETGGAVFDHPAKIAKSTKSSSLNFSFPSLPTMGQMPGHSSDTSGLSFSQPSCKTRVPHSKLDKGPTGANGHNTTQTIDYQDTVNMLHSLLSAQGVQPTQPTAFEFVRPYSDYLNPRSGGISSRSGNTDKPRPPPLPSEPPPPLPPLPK

SMILES	IC50 (CDK9/CycT1) [nM]	also measured
COc1cc(F)ccc1-c1cc(Nc2cc(CS(C)(=N)=O)c(Br)c(C)n2)ncc1F (racemic) [Example 5, (rac)-5-Bromo-N-[5-fluoro-4-(4-fluoro-2-methoxyphenyl)pyridin-2-yl]-6-methyl-4-[(S-methylsulfonimidoyl)methyl]pyridin-2-amine]	5	–
COc1cc(CS(C)(=N)=O)cc(Nc2cc(-c3ccc(F)cc3OC)c(F)cn2)n1 (racemic) [Example 6, (rac)-5-Fluoro-4-(4-fluoro-2-methoxyphenyl)-N-{6-methoxy-4-[(S-methylsulfonimidoyl)methyl]pyridin-2-yl}pyridin-2-amine]	2	IC50 ([1]; Homo sapiens, MOLM-13, 72 h): 11 nM; IC50 ([2]; Homo sapiens, A2780, 96 h): 11 nM
COc1cc(F)ccc1-c1cc(Nc2cc(CS(C)(=N)=O)cc(Cl)n2)ncc1F (racemic) [Example 7, (rac)-N-{6-Chloro-4-[(S-methylsulfonimidoyl)methyl]pyridin-2-yl}-5-fluoro-4-(4-fluoro-2-methoxyphenyl)pyridin-2-amine]	2	IC50 ([1]; Homo sapiens, MOLM-13, 72 h): 28 nM; IC50 ([2]; Homo sapiens, A2780, 96 h): 27 nM
COc1cc(F)ccc1-c1cc(Nc2cc(CS(C)(=O)=NC(C)=O)ccn2)ncc1F (racemic) [Example 13, (rac)-N-{[(2-{[5-Fluoro-4-(4-fluoro-2-methoxyphenyl)pyridin-2-yl]amino}pyridin-4-yl)methyl](methyl)oxido-λ^6-sulfanylidene}acetamide]	1	IC50 ([1]; Homo sapiens, MOLM-13, 72 h): 29 nM; IC50 ([2]; Homo sapiens, A2780, 96 h): 23 nM
CCOC(=O)N=S(C)(=O)Cc1cc(Nc2cc(-c3ccc(F)cc3OC)c(F)cn2)nc(OC)c1 (racemic) [Example 15, (rac)-ethyl{[(2-{[5-fluoro-4-(4-fluoro-2-methoxyphenyl)pyridin-2-yl]amino}-6-methoxypyridin-4-yl)methyl](methyl)oxido-λ^6-sulfanylidene}carbamate]	2	–
COc1cc(F)ccc1-c1cc(Nc2cc(CS(C)(=O)=NC(=O)C(F)(F)F)cc(F)n2)ncc1F (racemic) [Example 18, (rac)-2,2,2-Trifluoro-N-{[(2-fluoro-6-{[5-fluoro-4-(4-fluoro-2-methoxyphenyl)pyridin-2-yl]amino}pyridin-4-yl)methyl](methyl)oxido-λ^6-sulfanylidene}acetamide]	3	–
COc1cc(F)ccc1-c1cc(Nc2cc(CS(C)(=N)=O)ccn2)ncc1F (single isomer, unassigned; (+)) [Example 2, (+)-5-Fluoro-4-(4-fluoro-2-methoxyphenyl)-N-{4-[(S-methylsulfonimidoyl)methyl]pyridin-2-yl}pyridin-2-amine]	–	IC50 ([1]; Homo sapiens, MOLM-13, 72 h): 29 nM; IC50 [2]: 110 nM
COc1cc(F)ccc1-c1cc(Nc2cc(CS(C)(=N)=O)cc(F)n2)ncc1F (single isomer, unassigned; (+)) [Example 19, (+)-5-Fluoro-4-(4-fluoro-2-methoxyphenyl)-N-{6-fluoro-4-[(S-methylsulfonimidoyl)methyl]pyridin-2-yl}pyridin-2-amine]	5	–
COc1cc(F)ccc1-c1cc(Nc2cc(CS(C)(=N)=O)cc(C)n2)ncc1F (single isomer, unassigned; (+)) [Example 32, (+)-5-Fluoro-4-(4-fluoro-2-methoxyphenyl)-N-{6-methyl-4-[(S-methylsulfonimidoyl)methyl]pyridin-2-yl}pyridin-2-amine]	–	IC50 ([1]; Homo sapiens, MOLM-13, 72 h): 17 nM; IC50 ([2]; Homo sapiens, A2780, 96 h): 10 nM
COc1cc(F)ccc1-c1cc(Nc2cc(CS(C)(=N)=O)cc(C)n2)ncc1F (single isomer, unassigned; (-)) [Example 33, (−)-5-Fluoro-4-(4-fluoro-2-methoxyphenyl)-N-{6-methyl-4-[(S-methylsulfonimidoyl)methyl]pyridin-2-yl}pyridin-2-amine]	–	IC50 [1]: 23 nM

The next lines start with results.

IC50 (CDK9/CycT1) [nM]	SMILES	also measured
9	CCOc1cc(F)ccc1-c1cc(Nc2cc(CS(C)(=O)=NC(=O)C(F)(F)F)cc(F)n2)ncc1F (racemic) [Example 27, (rac)-N-{[(2-{[4-(2-Ethoxy-4-fluoro-phenyl)-5-fluoropyridin-2-yl]amino}-6-fluoropyridin-4-yl)methyl]-(methyl)oxido-λ^6-sulfanylidene}-2,2,2-trifluoroacetamide]	–
3	CCS(=N)(=O)Cc1ccnc(Nc2cc(-c3ccc(F)cc3OC)c(F)cn2)c1 (racemic) [Example 30, (rac)-N-{4-[(S-Ethylsulfonimidoyl)-methyl]pyridin-2-yl}-5-fluoro-4-(4-fluoro-2-methoxyphenyl)pyridin-2-amine]	–
3	COc1cc(F)ccc1-c1cc(Nc2cc(CS(C)(=N)=O)cc(C(F)F)n2)ncc1F (racemic) [Example 31, (rac)-N-{6-(Difluoromethyl)-4-[(S-methylsulfonimidoyl)methyl]pyridin-2-yl}-5-fluoro-4-(4-fluoro-2-methoxyphenyl)pyridin-2-amine]	–
18	COc1cc(F)ccc1-c1cc(Nc2cc(CS(C)(=O)=NC(=O)C(F)(F)F)cc(C(F)(F)F)n2)ncc1F (single isomer, unassigned; (+)) [Example 24, (+)-2,2,2-Trifluoro-N-[{[2-{[5-fluoro-4-(4-fluoro-2-methoxyphenyl)pyridin-2-yl]amino}-6-(trifluoromethyl)-pyridin-4-yl]methyl}(methyl)oxido-λ^6-sulfanylidene]acetamide]	–
5	CCOc1cc(F)ccc1-c1cc(Nc2cc(CS(C)(=N)=O)cc(F)n2)ncc1F (single isomer, unassigned; (+)) [Example 28, (+)-4-(2-Ethoxy-4-fluorophenyl)-5-fluoro-N-{6-fluoro-4-[(S-methylsulfonimidoyl)methyl]pyridin-2-yl}pyridin-2-amine]	–
2	COc1cc(F)ccc1-c1cc(Nc2cc(CS(C)(=N)=O)cc(F)n2)ncc1F (single isomer, unassigned; (-)) [Example 20, (−)-5-Fluoro-4-(4-fluoro-2-methoxyphenyl)-N-{6-fluoro-4-[(S-methylsulfonimidoyl)methyl]pyridin-2-yl}pyridin-2-amine]	–
15	COc1cc(F)ccc1-c1cc(Nc2cc(CS(C)(=O)=NC(=O)C(F)(F)F)cc(C(F)(F)F)n2)ncc1F (single isomer, unassigned; (-)) [Example 25, (−)-2,2,2-Trifluoro-N-[{[2-{[5-fluoro-4-(4-fluoro-2-methoxyphenyl)pyridin-2-yl]amino}-6-(trifluoromethyl)-pyridin-4-yl]methyl}(methyl)oxido-λ^6-sulfanylidene]acetamide]	–
3	CCOc1cc(F)ccc1-c1cc(Nc2cc(CS(C)(=N)=O)cc(F)n2)ncc1F (single isomer, unassigned; (-)) [Example 29, (−)-4-(2-Ethoxy-4-fluorophenyl)-5-fluoro-N-{6-fluoro-4-[(S-methylsulfonimidoyl)methyl]pyridin-2-yl}pyridin-2-amine]	–

— patent publication US9650340B2, “5-fluoro-N-(pyridin-2-yl)pyridin-2-amine derivatives containing a sulfoximine group” (BAYER PHARMA AKTIENGESELLSCHAFT, priority 2012, dated 2017)
